Source: patent US20240391902A1, “Crystalline Form of Compound” (Shenzhen Forward Pharmaceuticals Co., Limited, priority 2020, published 2024)

What was measured:
[1] = test system: EGFR activating mutation (exon 19 deletion activating mutation, L858R activating mutation, T790M drug resistance mutation and exon 20 insertion mutation); details: disclosed in CN105461695B; cited from earlier work
Dynamic solubility test = assay type: physicochemical; details: room temperature, feeding concentration 10 mg/mL, listed as compound of formula (I)
Method: Determination method: According to a feeding concentration of 10 mg/mL, about 50 mg of the sample were weighed and added to 5 mL of the corresponding medium, and the sample was dissolved by rotating at […] at room temperature.

## C=CC(=O)Nc1cc(Nc2ncnc(-c3cn(C)c4ccccc34)n2)c(OC)cc1N(C)CCN(C)C [Example 21]
[1]
  inhibitory activity against EGFR activating mutation compared with wild-type EGFR (WT EGFR): significantly higher
Dynamic solubility test; SGF, 0.5 h
  dynamic solubility: <1000 µg/mL
Dynamic solubility test; SGF, 1 h
  dynamic solubility: <1000 µg/mL
Dynamic solubility test; SGF, 2 h
  dynamic solubility: <1000 µg/mL
Dynamic solubility test; SGF, 4 h
  dynamic solubility: <1000 µg/mL
Dynamic solubility test; SGF, 24 h
  dynamic solubility: <1000 µg/mL
Dynamic solubility test; water, 0.5 h
  dynamic solubility: <1000 µg/mL
Dynamic solubility test; water, 1 h
  dynamic solubility: <1000 µg/mL
Dynamic solubility test; water, 2 h
  dynamic solubility: <1000 µg/mL
Dynamic solubility test; water, 4 h
  dynamic solubility: <1000 µg/mL
Dynamic solubility test; water, 24 h
  dynamic solubility: <1000 µg/mL
